Results as given in patent US20160291027A1, “METHODS FOR […] ABILITY OF A Z[…] COMPOUND TO TREAT CANCER” (Eisai R&D Management Co., Ltd., priority 2007, published 2016).

Test system: cell lines which carried a BRAF V600E mutation
Test: Cell growth assay (CellTiter-Glo or methylene blue) in solid cancer cell lines
Assay type: cell-based
Conditions: 96 hours, 0.3-10000 nM
Description: In a separate experiment, Compounds 091 and 106 were tested in solid cancer cell lines from different tissue types (shown in FIG. 3B for 21 cell lines for compound 091 and 19 cell lines for compound 106). All cell lines were introduced into 96-well plates and grown in the absence or continuous presence of 0.3-10000 nM of either compound 091 or compound 106 for 96 hours. Cell growth was assessed using a CellTiter-Glo® Luminescent Cell Viability Assay (Promega) or a methylene blue assay. IC50 values were determined as the concentration of a substance which inhibits cell growth by 50% compared to untreated cell populations.

## CNc1cc(O)c2c(c1)/C=C/C[C@H](O)[C@H](O)C(=O)/C=C\[C@@H](C)[C@H](C)OC2=O [Compound 091]
  Sensitivity of BRAF V600E cell lines (concentration range): low-nM or sub-μM concentration range
